Results: patent publication US20230041271A1, “Mitochondria-Targeted Polypeptide, Preparation Method thereof, and Use thereof” (Shenzhen Campus of Sun Yat-sen University, priority 2021, published 2023)
Square brackets hold non-standard residues; d marks the D form. Peptide text beside a SMILES is read from it. * marks the point of attachment. X2 = COc1cccc2c1C(=O)c1c(O)c3c(c(O)c1C2=O)C[C@@](O)(C(=O)CO)C[C@@H]3O[C@H]1C[C@H](NC(=O)OCCSSCCOC(=O)*)[C@H](O)[C@H](C)O1; 2Nal = N[C@@H](Cc1ccc2ccccc2c1)C(=O)O; d2Nal = N[C@H](Cc1ccc2ccccc2c1)C(=O)O; X1 = O=C1NC2CS[C@@H](CCCCC(=O)*)C2N1

How the values were obtained:
[1] = system: normal CHO cells; experiment: Cytotoxicity test (MTT) on normal cells; type: cell-based; conditions: various concentrations, 48 h
Description: (§1) Cells were inoculated in a 96-well plate and cultured overnight in a cell incubator containing 5% CO2 at 37° C. The cells were treated with prodrug 17 at various concentrations and cultured in a cell incubator containing 5% CO2 at 37° C. for 48 h. A commercial MTT assay kit was then used to measure the cell viability. The experiment was repeated three times, and the data were analyzed by GraphPad Prism 6.0 software.

[2] = system: HeLa tumor cells; experiment: Cytotoxicity test (MTT) on tumor cells; type: cell-based; conditions: various concentrations, 48 h
Description: as §1

[3] = system: Hela cells; experiment: Determination of mitochondrial membrane potential MMP (JC-10 dye); type: cell-based; conditions: 0-10 μM, 24 hours
Description: Cells were inoculated in a 384-well plate with a black transparent bottom and then cultured overnight in a cell incubator containing 5% CO2 at 37° C., and the cells were treated with prodrug 17 at a specified concentration for 24 hours. An MMP kit (JC-10 dye, MAK-160) was then used for treatment and measurement according to the test method as provided, wherein apoptotic/damaged cells were monitored using λex=490 nm and λem=525 nm, and normal cells were monitored using λex=540 nm and λem=590 nm.

[4] = system: Hela cells; experiment: Drug release test of prodrug 17 in cells (fluorescence imaging); type: cell-based; conditions: for localization in the cells: HeLa cells
Description: Hela cells were cultured in an 8-well imaging dish and then treated with prodrug 17 (1 μM) for a certain time (1 h, 2 h, 3 h and 5 h). After the culture medium was removed, the cells were washed with PBS, a fresh culture medium was used for replacement, and the treated cells were then photographed by a fluorescence microscope. In addition, the cells were directly co-incubated with compound 17 (1 μM) for 1 h and then incubated with exogenous GSH (2 mM) for another 1 h (totally 2 h of incubation with compound 17); the cells were pretreated with the GSH inhibitor BSO (5 mM) for 24 h and then incubated with compound 17 (1 μM) for 3 h; and the cells were pre-incubated with a tumor-targeted biotin ligand at various concentrations (1 mM or 2 mM) for 1 h and then co-incubated with compound 17 for 3 h. After the culture medium was removed, the cells were washed with PBS, a fresh culture medium was used for replacement, and a fluorescence microscope was then used to take an image, which was used as the control.

[5] = system: mitochondria of HeLa cells; experiment: Mitochondrial co-localization confocal imaging with MitoTracker Deep Red; type: cell-based; conditions: for co-localization coefficient with the commercial mitochondrial dye (MitoTracker Deep Red): HeLa cells, confocal imaging, 50 nM MitoTracker Deep Red
Description: The synthesized mitochondria-targeted fluorescent probes were analyzed by confocal imaging to detect the effect of the arginine number on the mitochondrial localization thereof.
Experimental method: Solid powders of mitochondria-targeted fluorescent probes 8-12 synthesized in Example 3 were dissolved in DMSO to prepare 2 mM test mother solutions, and HeLa cells were cultured in a culture medium (DMEM: FBS: penicillin-streptomycin dual antibody=9:1:0.1). The cells were inoculated in an 8-well imaging dish and cultured in a cell incubator containing 5% CO2 at 37° C. until the cell density reached 60%. After the culture medium was removed, the cells were incubated with the target compound for a specified time. The culture medium was then removed, and wash with PBS was conducted three times. Thereafter, 50 nM commercial mitochondrial probe MitoTracker Deep Red (50 nM) was further added to the culture dish for 15 minutes of continuous incubation. After the culture medium was removed, wash with PBS was conducted three times. Imaging on confocal microscope was then carried out. Blue channel tracker 1 was set, with the excitation wavelength being 405 nm and the emission band being 420-490 nm, and this channel was used to receive fluorescence emitted by the mitochondria-targeted peptide. Red channel tracker 2 was set, with the excitation wavelength being 640 nm and the emission band being 655-755 nm, and this channel was used to receive fluorescence emitted by MitoTracker Deep Red, a commercial mitochondrial dye. In addition, in a cell imaging experiment, green channel tracker 3 was set, with the excitation wavelength being 560 nm and the emission band being 580-620 nm, and this channel was used to receive fluorescence emitted by compound 13. Green channel tracker 4 was set, with the excitation wavelength being 488 nm and the emission band being 500-600 nm, and this channel was used to receive fluorescence emitted by compound 14.

[6] = Drug release and stability test of prodrug 17 in PBS solution with or without GSH (fluorescence, HPLC, ESI-MS); type: physicochemical
Description: Prodrug 17 (5 mM stock solution in DMSO) was diluted with PBS to form a solution at an indicated concentration and then incubated at 37° C. with a glutathione (GSH) solution at a specified concentration (0-12 mM GSH for concentration-dependent study and 10 mM GSH for time-dependent study), and the fluorescence of the treated sample was monitored periodically at specific time points. The change in the fluorescence intensity of the sample reflected the drug release behavior of prodrug 17 under GSH activation. In addition, a chromatogram was detected by high performance liquid chromatography after co-incubation of prodrug 17 (20 μM) with GSH (10 mM) in a PBS solution at 37° C. for 6 h, and a mass spectrum of the reaction solution was detected by ESI-MS.

[7] = system: Hela cells; experiment: Apoptosis detection (Annexin V-PE, flow cytometry); type: cell-based; conditions: various concentrations, 24 h
Description: Cells were inoculated in a 35 mm culture dish. After culture overnight at 37° C., the cells were treated with prodrug 17 at a specified concentration for 24 h. The cells were then collected, rinsed with PBS, resuspended in 500 μL of 1×buffer, and quantitatively measured by a flow cytometer according to a method given by the apoptosis kit Annexin V-PE.

## COc1cccc2c1C(=O)c1c(O)c3c(c(O)c1C2=O)C[C@@](O)(C(=O)CO)C[C@@H]3O[C@H]1C[C@H](NC(=O)OCCSSCCOC(=O)NCCCC[C@H](NC(=O)CNC(=O)CNC(=O)[C@@H](Cc2ccc3ccccc3c2)NC(=O)[C@H](Cc2ccc3ccccc3c2)NC(=O)[C@H](CCCNC(=N)N)NC(=O)[C@H](CCCNC(=N)N)NC(=O)[C@H](CCCNC(=N)N)NC(=O)CCCC[C@@H]2SCC3NC(=O)NC32)C(N)=O)[C@H](O)[C@H](C)O1 (some centres unmarked) [prodrug 17] (X1-RRR[2Nal][d2Nal]GGK(X2)-NH2)
[1]
  toxicity to normal cells (CHO cells): almost no toxicity
[2]
  anti-tumor activity (cell viability of HeLa cells): strong anti-tumor activity
[3]
  mitochondrial membrane potential change: remarkable reduction in mitochondrial membrane potential
[4]; 1 μM, 1-5 h, fluorescence imaging
  uptake by and release in HeLa cells: slowly taken up
[4]; BSO 5 mM 24 h, then 1 μM for 3 h
  cell fluorescence after pre-incubation with the GSH inhibitor BSO: almost no fluorescence
[4]; 1 μM, fluorescence imaging
  localization in the cells: mainly located in mitochondria
[5]; 1 μM in HeLa cells
  mitochondrial targeting (co-localization imaging): excellent mitochondrial targeting properties
[6]; 37° C., 10 mM GSH, PBS
  time at which fluorescence (drug release) reached the maximum value: about 8 hours
[6]; PBS solution at 37° C. for 7 days, HPLC
  stability in PBS solution: no obvious compound degradation
[6]; prodrug 20 μM, GSH 10 mM, PBS, 37° C., 6 h
  GSH-responsive release detected by HPLC and ESI-MS: released Dox and mitochondria-targeted peptide 16 could be clearly detected
[7]
  induction of apoptosis: induce cell death through cell apoptosis

## Ac-Arg-Arg-Arg-Arg-L-Nal-D-Nal-Gly-Gly-Lys [MTP4]
[5]
  co-localization coefficient with the commercial mitochondrial dye (MitoTracker Deep Red): 0.68

## COc1cccc2c1C(=O)c1c(O)c3c(c(O)c1C2=O)C[C@@](O)(C(=O)CO)C[C@@H]3O[C@H]1C[C@H](N)[C@H](O)[C@H](C)O1 [Dox, doxorubicin, reference compound]
[4]; 1 μM, fluorescence imaging
  localization in the cells: mainly located in the nucleus

## Ac-Arg-Arg-Arg-Arg-Arg-L-Nal-D-Nal-Gly-Gly-Lys [MTPS]
[5]
  co-localization coefficient with the commercial mitochondrial dye (MitoTracker Deep Red): 0.54

## Ac-Arg-Arg-L-Nal-D-Nal-Gly-Gly-Lys [MTP2]
[5]
  co-localization coefficient with the commercial mitochondrial dye (MitoTracker Deep Red): 0.65

## Ac-Arg-Arg-Arg-L-Nal-D-Nal-Gly-Gly-Lys [MTP3]
[5]
  co-localization coefficient with the commercial mitochondrial dye (MitoTracker Deep Red): 0.84
[5]; after co-incubation with cells for up to 36 h
  co-localization coefficient with the commercial fluorescent probe after long co-incubation: 0.70
